Here are results for 24 molecules from patent US20230286970A1, “NOVEL OXADIAZOLE-BASED SELECTIVE HDAC6 INHIBITORS” (ITALFARMACO S.P.A., priority 2020, published 2023).

The target of one experiment is recombinant human HDAC6 (Homo sapiens (Human), UniProt Q9UBN7). As to the kind of experiment: Enzymatic screening, HDAC6 inhibition (fluorogenic FdL_G substrate). The class given is biochemical. On the procedure:
(§1) For each test compound, 100× concentrated DMSO solutions at 8 doses were prepared and then diluted in assay buffer (25 mM Tris-HCl, pH 8, 130 mM NaCl, 0.05% Tween-20, 10% Glycerol) to obtain 5× concentrated solutions in relation to the final concentrations (typical final concentration range—6.4-200000 nM or 0.18-50000 nM, final DMSO content—1%). Then 10 μL solution of each test compound concentration were placed on a 96-well plate in triplicate and 15 μL of 3.33× concentrated enzyme solution in the assay buffer containing 3.33× concentrated BSA (final BSA concentration—2 mg/mL for HDAC4, HDAC5 and HDAC9 or 1 mg/mL for other isoforms) and in the case of HDAC6-3.33× concentrated TCEP (final TCEP concentration—200 μM) were added to each well. After a period of preincubation (incubation times and temperatures vary for different isoforms and are shown in table 1) 25 μL of solution containing the substrate were added. As substrate, FLUOR DE LYS® deacetylase substrate (Enzo Life Sciences, cat: BML-KI104, FdL), FLUOR DE LYS®-Green substrate (Enzo Life Sciences, cat: BML-KI572, FdL_G) or Boc-Lys(Tfa)-AMC (Bachem, cat: 4060676.005, Tfal)—2× concentrated solution in assay buffer were used. Following a reaction period (reaction times and temperatures vary for different isoforms and are reported in Table 1), 50 μL of the development solution consisting of concentrate FLUOR DE LYS® developer I (Enzo Life Sciences, ca: BML-KI105), diluted 200 times in buffer (50 mM Tris-HCl, pH 8, 137 mM NaCl, 2.7 mM KCl, 1 mM MgCl2) plus 2 μM TSA was added and, after 25 minutes at room temperature in the dark, using the Victor 1420 Multilabel Counter Perkin Elmer Wallac instrument, the fluorescence reading was carried out.

Another experiment deals with recombinant human HDAC1 (Homo sapiens (Human), UniProt Q13547). As to the kind of experiment: Enzymatic screening, HDAC1 inhibition (fluorogenic FdL_G substrate). The class given is biochemical. On the procedure:
as §1

pIC50: −log10 of the molar value.

recombinant human HDAC1, sequence (Q13547 whole entry): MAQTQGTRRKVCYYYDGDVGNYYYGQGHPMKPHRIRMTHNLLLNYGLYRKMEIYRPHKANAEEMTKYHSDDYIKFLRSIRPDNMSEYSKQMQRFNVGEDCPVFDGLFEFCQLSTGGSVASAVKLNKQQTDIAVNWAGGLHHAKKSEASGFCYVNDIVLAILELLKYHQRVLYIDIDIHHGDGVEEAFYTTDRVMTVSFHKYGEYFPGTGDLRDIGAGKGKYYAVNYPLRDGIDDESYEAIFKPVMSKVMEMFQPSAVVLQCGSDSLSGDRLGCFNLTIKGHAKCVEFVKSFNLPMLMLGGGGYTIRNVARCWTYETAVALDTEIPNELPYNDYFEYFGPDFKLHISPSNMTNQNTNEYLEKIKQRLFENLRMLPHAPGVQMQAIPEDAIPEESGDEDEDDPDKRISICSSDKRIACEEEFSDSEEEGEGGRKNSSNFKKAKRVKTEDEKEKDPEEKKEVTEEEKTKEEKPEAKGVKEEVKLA
recombinant human HDAC6, sequence (Q9UBN7 whole entry, canonical isoform): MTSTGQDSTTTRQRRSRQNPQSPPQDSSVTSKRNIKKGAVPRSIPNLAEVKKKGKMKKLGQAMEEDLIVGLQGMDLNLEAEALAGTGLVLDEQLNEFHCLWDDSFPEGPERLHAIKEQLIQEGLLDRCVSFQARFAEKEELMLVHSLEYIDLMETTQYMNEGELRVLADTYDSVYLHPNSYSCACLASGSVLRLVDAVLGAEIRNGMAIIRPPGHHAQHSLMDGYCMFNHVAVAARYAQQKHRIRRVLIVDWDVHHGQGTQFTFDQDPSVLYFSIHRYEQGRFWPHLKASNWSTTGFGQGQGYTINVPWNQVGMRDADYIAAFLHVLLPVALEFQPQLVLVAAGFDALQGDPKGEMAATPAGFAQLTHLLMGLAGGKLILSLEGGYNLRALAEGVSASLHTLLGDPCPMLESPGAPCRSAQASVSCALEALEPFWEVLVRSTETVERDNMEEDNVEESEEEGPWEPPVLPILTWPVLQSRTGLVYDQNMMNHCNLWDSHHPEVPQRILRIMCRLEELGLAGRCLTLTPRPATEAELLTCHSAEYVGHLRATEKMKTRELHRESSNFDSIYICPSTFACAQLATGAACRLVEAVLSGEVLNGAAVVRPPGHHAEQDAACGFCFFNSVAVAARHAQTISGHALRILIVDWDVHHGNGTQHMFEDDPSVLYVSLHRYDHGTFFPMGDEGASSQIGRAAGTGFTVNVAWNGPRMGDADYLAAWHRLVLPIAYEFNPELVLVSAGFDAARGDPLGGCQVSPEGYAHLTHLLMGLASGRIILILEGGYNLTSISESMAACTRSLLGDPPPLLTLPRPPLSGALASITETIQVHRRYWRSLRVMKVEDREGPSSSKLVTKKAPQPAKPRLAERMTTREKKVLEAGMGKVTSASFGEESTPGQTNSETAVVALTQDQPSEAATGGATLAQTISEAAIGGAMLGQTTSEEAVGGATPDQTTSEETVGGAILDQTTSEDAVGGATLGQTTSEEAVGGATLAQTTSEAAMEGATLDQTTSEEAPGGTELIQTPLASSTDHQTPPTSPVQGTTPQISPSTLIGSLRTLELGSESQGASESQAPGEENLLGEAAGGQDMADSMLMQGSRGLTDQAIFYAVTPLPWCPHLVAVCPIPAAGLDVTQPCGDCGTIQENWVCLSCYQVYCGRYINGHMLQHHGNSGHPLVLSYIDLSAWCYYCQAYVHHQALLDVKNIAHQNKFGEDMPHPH

The term pIC50 denotes −log10 of the IC50, conventionally taken in molar units. Take `CC(C)(C)OC(=O)N1CCn2ncc(-c3cccc(-c4nnn(Cc5ccc(-c6nnc(C(F)F)o6)cc5)n4)c3)c2C1` [compound 240, tert-butyl 3-(3-(2-(4-(5-(difluoromethyl)-1,3,4-oxadiazol-2-yl)benzyl)-2H-tetrazol-5-yl)phenyl)-6,7-dihydropyrazolo[1,5-a]pyrazine-5 (4H)-carboxylate]: the pIC50 is 6.67 at recombinant human HDAC6 and below 3.70 at recombinant human HDAC1.

On to `O=C1Cc2cc(-c3cn(Cc4ccc(-c5nnc(C(F)F)o5)cn4)nn3)ccc2N1` [compound 325, 5-[1-[[5-[5-(difluoromethyl)-1,3,4-oxadiazol-2-yl]pyridin-2-yl]methyl]triazol-4-yl]-1,3-dihydroindol-2-one], for which the figures for the pIC50 on recombinant human HDAC6 and at recombinant human HDAC1 were 7.59 and below 3.00, respectively.

As for `Cn1c(N)nc2cc(-c3cn(Cc4ccc(-c5nnc(C(F)F)o5)c(F)c4F)nn3)ccc21` [compound 345, 5-[1-[[4-[5-(difluoromethyl)-1,3,4-oxadiazol-2-yl]-2,3-difluorophenyl]methyl]triazol-4-yl]-1-methylbenzimidazol-2-amine], the pIC50 on recombinant human HDAC6 was 7.62; at recombinant human HDAC1 it was 3.77.

Regarding `CN(Cc1ccc(-c2nc(Cc3c(F)cc(-c4nnc(C(F)F)o4)cc3F)no2)cc1)C(=O)C(F)F` [compound 206, N-(4-(3-(4-(5-(difluoromethyl)-1,3,4-oxadiazol-2-yl)-2,6-difluorobenzyl)-1,2,4-oxadiazol-5-yl)benzyl)-2,2-difluoro-N-methylacetamide], the figures for the pIC50 on recombinant human HDAC6 and on recombinant human HDAC1 were 6.90 and below 3.70, respectively.

On to `CN1CC(C(=O)Nc2cccc(-c3cn(Cc4ccc(-c5nnc(C(F)F)o5)cc4)nn3)c2)C1` [compound 149, N-(3-(1-(4-(5-(difluoromethyl)-1,3,4-oxadiazol-2-yl)benzyl)-1H-1,2,3-triazol-4-yl)phenyl)-1-methylazetidine-3-carboxamide], for which the pIC50 at recombinant human HDAC6 was 7.19; at recombinant human HDAC1 it was below 3.70.

As for `Cn1c(N)nc2cc(-c3nnn(Cc4ccc(-c5nnc(C(F)F)o5)cc4F)n3)ccc21` [compound 348, 5-[2-[[4-[5-(difluoromethyl)-1,3,4-oxadiazol-2-yl]-2-fluorophenyl]methyl]tetrazol-5-yl]-1-methylbenzimidazol-2-amine], the pIC50 on recombinant human HDAC6 is 7.59; at recombinant human HDAC1 it was below 3.00.

With `O=C(c1cccc(-c2nnn(Cc3ccc(-c4nnc(C(F)F)o4)cc3)n2)c1)N1CCOCC1` [compound 120, (3-(2-(4-(5-(difluoromethyl)-1,3,4-oxadiazol-2-yl)benzyl)-2H-tetrazol-5-yl)phenyl)(morpholino)methanone], the pIC50 is 7.35 on recombinant human HDAC6 and below 3.70 on recombinant human HDAC1.

For the molecule `Cn1c(N)nc2cc(-n3cc(Cc4ccc(-c5nnc(C(F)F)o5)cc4)nn3)ccc21` [compound 414, 5-[4-({4-[5-(difluoromethyl)-1,3,4-oxadiazol-2-yl]phenyl}methyl)-1H-1,2,3-triazol-1-yl]-1-methyl-1H-1,3-benzodiazol-2-amine], the pIC50 is 6.34 at recombinant human HDAC6 and 3.00 at recombinant human HDAC1.

With `FC(F)c1nnc(-c2ccc(Cn3cnc(-c4ccc(NC5=NCCN5)cc4)c3)c(Cl)c2)o1` [compound 358, N-[4-[1-[[2-chloro-4-[5-(difluoromethyl)-1,3,4-oxadiazol-2-yl]phenyl]methyl]imidazol-4-yl]phenyl]-4,5-dihydro-1H-imidazol-2-amine], the pIC50 is 7.28 at recombinant human HDAC6 and 3.91 on recombinant human HDAC1.

Consider `Cn1c(=N)n(C)c2cc(-c3cn(Cc4ccc(-c5nnc(C(F)F)o5)cc4)nn3)ccc21` [compound 162, 5-(1-(4-(5-(difluoromethyl)-1,3,4-oxadiazol-2-yl)benzyl)-1H-1,2,3-triazol-4-yl)-1,3-dimethyl-1,3-dihydro-2H-benzo[d]imidazol-2-imine], for which the figures for the pIC50 at recombinant human HDAC6 and at recombinant human HDAC1 were 7.12 and 4.35, respectively.

Turning to `Nc1ccc(-c2cn(Cc3ccc(-c4nnc(C(F)F)o4)nn3)nn2)cn1` [compound 198, 5-(1-((6-(5-(difluoromethyl)-1,3,4-oxadiazol-2-yl)pyridazin-3-yl)methyl)-1H-1,2,3-triazol-4-yl)pyridin-2-amine], the pIC50 on recombinant human HDAC6 is 6.96; on recombinant human HDAC1, below 3.70.

For `CNc1ccc(-c2nnn(Cc3ccc(-c4nnc(C(F)F)o4)cc3)n2)cc1N` [compound 164, 4-(2-(4-(5-(difluoromethyl)-1,3,4-oxadiazol-2-yl)benzyl)-2H-tetrazol-5-yl)-N-1-methylbenzene-1,2-diamine], the pIC50 at recombinant human HDAC6 is 7.11; at recombinant human HDAC1, below 3.70.

For `Nc1ccc(-c2cn(Cc3c(F)cc(-c4nnc(C(F)F)o4)cc3F)nn2)cc1` [compound 296, 4-(1-(4-(5-(difluoromethyl)-1,3,4-oxadiazol-2-yl)-2,6-difluorobenzyl)-1H-1,2,3-triazol-4-yl)aniline], the values for the pIC50 at recombinant human HDAC6 and on recombinant human HDAC1 were 7.47 and below 3.70, respectively.

On to `O=C1NCc2ccc(-c3nnn(Cc4ccc(-c5nnc(C(F)F)o5)cc4F)n3)cc21` [compound 40, 6-(2-(4-(5-(difluoromethyl)-1,3,4-oxadiazol-2-yl)-2-fluorobenzyl)-2H-tetrazol-5-yl)isoindolin-1-one], for which the figures for the pIC50 on recombinant human HDAC6 and on recombinant human HDAC1 were 7.72 and below 3.70, respectively.

Consider `Nc1nc2ccc(-c3cn(Cc4ccc(-c5nnc(C(F)F)o5)cc4)cn3)cc2s1` [compound 306, 6-[1-[[4-[5-(difluoromethyl)-1,3,4-oxadiazol-2-yl]phenyl]methyl]imidazol-4-yl]-1,3-benzothiazol-2-amine], for which the pIC50 was 7.49 on recombinant human HDAC6 and below 3.00 on recombinant human HDAC1.

Regarding `Nc1nc2cc(-c3nnn(Cc4ccc(-c5nnc(C(F)F)o5)cc4)n3)ccc2o1` [compound 152, 5-(2-(4-(5-(difluoromethyl)-1,3,4-oxadiazol-2-yl)benzyl)-2H-tetrazol-5-yl)benzo[d]oxazol-2-amine], the pIC50 on recombinant human HDAC6 is 7.19; at recombinant human HDAC1, below 3.70.

On to `CNc1ccc(-c2nnn(Cc3ccc(-c4nnc(C(F)F)o4)cc3)n2)cc1NC(=O)N1CCOCC1` [compound 176, N-(5-(2-(4-(5-(difluoromethyl)-1,3,4-oxadiazol-2-yl)benzyl)-2H-tetrazol-5-yl)-2-(methylamino)phenyl)morpholine-4-carboxamide], for which the pIC50 on recombinant human HDAC6 was 7.06; at recombinant human HDAC1 it was below 3.70.

`Nc1nc2ccc(-c3cc(Cc4ccc(-c5nnc(C(F)F)o5)cc4)on3)cc2s1` [compd. 366, 6-[5-[[4-[5-(difluoromethyl)-1,3,4-oxadiazol-2-yl]phenyl]methyl]-1,2-oxazol-3-yl]-1,3-benzothiazol-2-amine]: the pIC50 is 6.53 at recombinant human HDAC6 and below 3.00 on recombinant human HDAC1.

Turning to `[2H]C([2H])(c1ccc(-c2nnc(C(F)F)o2)cn1)n1cc(-c2ccc(N)nc2)nn1` [compound 362, 5-[1-[dideuterio-[5-[5-(difluoromethyl)-1,3,4-oxadiazol-2-yl]pyridin-2-yl]methyl]triazol-4-yl]pyridin-2-amine], the values for the pIC50 on recombinant human HDAC6 and on recombinant human HDAC1 were 7.74 and below 3.00, respectively.

With `CN1CCN(c2ccc(-c3nnn(Cc4ccc(-c5nnc(C(F)F)o5)cc4)n3)cc2)CC1` [compound 213, 2-(difluoromethyl)-5-(4-((5-(4-(4-methylpiperazin-1-yl)phenyl)-2H-tetrazol-2-yl)methyl)phenyl)-1,3,4-oxadiazole], the pIC50 on recombinant human HDAC6 was 6.82; on recombinant human HDAC1, below 3.70.

Regarding `CCNc1ccc2cc(-c3nnn(Cc4cc(F)c(-c5nnc(C(F)F)o5)cc4F)n3)ccc2n1` [compound 409, 6-(2-(4-(5-(difluoromethyl)-1,3,4-oxadiazol-2-yl)-2,5-difluorobenzyl)-2H-tetrazol-5-yl)-N-ethylquinolin-2-amine], the pIC50 on recombinant human HDAC6 was 6.38; on recombinant human HDAC1, 3.00.

Take `CNc1ncc2cc(-c3cn(Cc4ccc(-c5nnc(C(F)F)o5)c(F)c4)nn3)ccc2n1` [compound 393, 6-[1-({4-[5-(difluoromethyl)-1,3,4-oxadiazol-2-yl]-3-fluorophenyl}methyl)-1H-1,2,3-triazol-4-yl]-N-methylquinazolin-2-amine]: the pIC50 is 6.30 at recombinant human HDAC6 and 3.00 at recombinant human HDAC1.

Turning to `Nc1ccc(-c2cn(C(CC3CCC3)c3ccc(-c4nnc(C(F)F)o4)cc3)nn2)cn1` (stereo not drawn) [Compd. 242, 5-(1-(2-cyclobutyl-1-(4-(5-(difluoromethyl)-1,3,4-oxadiazol-2-yl)phenyl)ethyl)-1H-1,2,3-triazol-4-yl)pyridin-2-amine], the pIC50 on recombinant human HDAC6 was 6.60; at recombinant human HDAC1, below 3.70.

As for `Nc1cc2cc(-c3cn(Cc4ccc(-c5nnc(C(F)F)o5)cc4F)nn3)ccc2cn1` [compound 405, 6-[1-({4-[5-(difluoromethyl)-1,3,4-oxadiazol-2-yl]-2-fluorophenyl}methyl)-1H-1,2,3-triazol-4-yl]isoquinolin-3-amine], the values for the pIC50 on recombinant human HDAC6 and on recombinant human HDAC1 were 7.23 and 3.00, respectively.
